Assay results taken from patent publication US20260248832A1, “COMPOSITION COMPRISING CYTIDINE ANALOGS AND USES AND METHODS THEREOF” (UNIVERSITÄT HEIDELBERG, priority 2022, published 2026).
Values after ≈ are worked out from the molar mass of the structure shown.

Tests used:
Type in all cases: physicochemical
[1] = Stability of decitabine in aqueous media (HPLC); details: DMSO stock mixed 1:2 with 20 mM ammonium acetate pH 6.8; room temperature (about 25° C.); up to 14 days
Description: (§1) Chem Res Toxicol 2009; 22 (6): 1194-204.
(§2) • 1. […] Immediate Injection • 3. […] Chem Res Toxicol 2009; 22 (6): 1194-204.
To test the stability of β-decitabine in an aqueous medium, two stock solutions of β-decitabine in DMSO were prepared and mixed 1:2 with the HPLC mobile phase (20 mM ammonium acetate pH 6.8). The samples were stored at room temperature (about 25° C.) and their content of β-decitabine, which is considered to represent the active anomer of decitabine, was measured for up to 14 days.

[2] = Solubility of decitabine in different non-aqueous media; details: DMSO
Description: Due to the unsuitability of aqueous media, different non-aqueous media were tested with regard to the solubility of decitabine in the non-aqueous media. As decitabine is a nucleoside, several polar, water-free solvents, that would be well suited for further formulation experiments, were selected to determine the solubility of decitabine. […] Therefore, the DMSO stock was chosen as the next candidate for stability and formulation testing.

[3] = Long-term stability of decitabine in DMSO (HPLC); details: 3 mM stock in DMSO; room temperature and 2-8° C.; almost three months
Description: as §1, §2
A 3 mM stock solution of decitabine in DMSO was prepared and one aliquot each was stored at room temperature and at 2-8° C. Its β-decitabine concentration was determined by HPLC for almost three months.

Nc1ncn([C@H]2C[C@H](O)[C@@H](CO)O2)c(=O)n1 [decitabine, 5-aza-2′-deoxycytidine]
stability of β-decitabine in aqueous medium [1]: observed instability
solubility ([2]; organic solvent or mixture): ~46 mg/mL (≈ 202 mM)
solubility of decitabine for relevant dosage strengths ([2]; four tested solvents: glycerol, PEG 300, absolute ethanol): only DMSO showed sufficient solubility
change in β-decitabine concentration in DMSO [3]: almost no change
